Measured values: PubChem BioAssay (NCI)
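Five compound concentrations were applied to cells in 96-well plates for 48 hours; endpoints were derived by simple linear interpolation of the resulting dose-response curve. At the GI50, growth is halved. TGI is the concentration that stops growth completely.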

What was measured:
Experiment in all cases: NCI tumour cell line growth inhibition, 48 h
[1] = system: UO-31 renal
[2] = system: IGROV1 ovarian
[3] = system: HOP-62 NSCLC
[4] = system: HCT-116 colon
[5] = system: SR leukemia
[6] = system: OVCAR-3 ovarian
[7] = system: HOP-92 NSCLC
[8] = system: T-47D breast
[9] = system: EKVX NSCLC
[10] = system: SW-620 colon
[11] = system: MDA-MB-435
[12] = system: HL-60(TB) leukemia
[13] = system: RXF 393 renal
[14] = system: A498 renal
[15] = system: KM12 colon
[16] = system: K-562 leukemia
[17] = system: U251 CNS
[18] = system: UACC-257 melanoma
[19] = system: NCI/ADR-RES ovarian
[20] = system: NCI-H460 lung
[21] = system: NCI-H23 lung
[22] = system: CCRF-CEM leukemia
[23] = system: A549 NSCLC
[24] = system: SK-OV-3 ovarian
[25] = system: SF-539 CNS
[26] = system: MOLT-4 leukemia
[27] = system: SK-MEL-2 melanoma

SMILES: COc1cccc2c1n([O-])c1cccc(OC)c1[n+]2=O
- GI50 [1]: 6.7 µM
- TGI [1]: 32.7 µM
- GI50 [2]: 4.8 µM
- TGI [2]: 66.1 µM
- GI50 [3]: 11 µM
- TGI [3]: 36.7 µM
- GI50 [4]: 3.7 µM
- TGI [4]: 64.3 µM
- GI50 [5]: 0.897 µM
- TGI [5]: 9.36 µM
- GI50 [6]: 17.6 µM
- TGI [6]: > 100 µM
- GI50 [7]: 16.3 µM
- TGI [7]: > 100 µM
- GI50 [8]: 2.39 µM
- TGI [8]: 10.3 µM
- GI50 [9]: 7.26 µM
- TGI [9]: 37 µM
- GI50 [10]: 4.91 µM
- TGI [10]: 21.7 µM
- GI50 [11]: 10.9 µM
- TGI [11]: 36.2 µM
- GI50 [12]: 3.23 µM
- TGI [12]: 9.12 µM
- GI50 [13]: 19.3 µM
- TGI [13]: > 100 µM
- GI50 [14]: 16.4 µM
- TGI [14]: > 100 µM
- GI50 [15]: 10.6 µM
- TGI [15]: 29.6 µM
- GI50 [16]: 6.13 µM
- TGI [16]: > 100 µM
- GI50 [17]: 10.4 µM
- TGI [17]: 48.2 µM
- GI50 [18]: 9.69 µM
- TGI [18]: 28.7 µM
- GI50 [19]: 3.81 µM
- TGI [19]: 22.7 µM
- GI50 [20]: 3.05 µM
- TGI [20]: 14.4 µM
- GI50 [21]: 4.82 µM
- TGI [21]: 28 µM
- GI50 [22]: 3.49 µM
- TGI [22]: 35.7 µM
- GI50 [23]: 7.78 µM
- TGI [23]: > 100 µM
- GI50 [24]: 10.5 µM
- TGI [24]: 28.9 µM
- GI50 [25]: 7.85 µM
- TGI [25]: > 100 µM
- GI50 [26]: 4.97 µM
- TGI [26]: > 100 µM
- GI50 [27]: 17.8 µM
